{
  "source": "patent US20230096766A1",
  "about": "“AMINO ACID HAVING FUNCTIONAL GROUP CAPABLE OF INTERMOLECULAR HYDROGEN BONDING, PEPTIDE COMPOUND CONTAINING SAME AND METHOD FOR PRODUCTION THEREOF” (Chugai Seiyaku Kabushiki Kaisha, priority 2018, published 2023)",
  "experiment": "in vitro",
  "conditions": "human",
  "note": "*1 amine or outer side, *2 acyl side, *3 side chain or, on linkers, in order; H or OH if unused. Where a SMILES comes first, the peptide text is derived from it. Bridges are numbered along the chain shown (N, C = ends). [ ]: non-standard residue; d: D form. The star is where a group is joined. ξ: configuration not given here. Phe(3-OMe,4-CONHMe) = CNC(=O)c1ccc(C[C@H](N)C(=O)O)cc1OC; NMePhe(3-Cl) = CN[C@@H](Cc1cccc(Cl)c1)C(=O)O; ξGln(SO2Me) = CS(=O)(=O)NC(=O)CCC(N)C(=O)O; Tyr(3-F) = N[C@@H](Cc1ccc(O)c(F)c1)C(=O)O; X7 = O=C(C[C@H](COCCO)N[*:1])[*:2]; Hyp = O=C(O)[C@@H]1C[C@@H](O)CN1; NMeF = CN[C@@H](Cc1ccccc1)C(=O)O; NMeGABA = CN(CCCC(=O)[*:2])[*:1]; Butyl(3-Me,3-OH) = CC(C)(O)CC*; CH2CH(OH)CF3 = OC(C*)C(F)(F)F; NMeL = CN[C@@H](CC(C)C)C(=O)O; NMeV = CN[C@H](C(=O)O)C(C)C; ξIle = CC[C@H](C)C(N)C(=O)O; NMeAbu = CC[C@H](NC)C(=O)O; NMeA = CN[C@@H](C)C(=O)O; Piperidide = C1CCN(*)CC1; NBuGly = CCCCNCC(=O)O; NPrGly = CCCNCC(=O)O; Ethyl(2-OH) = OCC*; X3 = C[C@H](O)C*; Sar = CNCC(=O)O; tBu = CC(C)(C)*",
  "data": [
    {"smiles": "CC[C@H](C)[C@@H]1NC(=O)[C@H](CC(C)C)N(C)C(=O)CCCN(C)C(=O)C[C@@H](C(=O)N2CCCCC2)NC(=O)[C@H](CC(C)C)N(C)C(=O)[C@H](C)N(C)C(=O)[C@H]([C@@H](C)O)NC(=O)[C@H](CC(C)C)N(C)C(=O)[C@H](Cc2ccc(O)c(F)c2)NC(=O)[C@H](CC(C)C)N(C)C(=O)[C@H](Cc2ccccc2)N(C)C1=O", "note": "[pd119] ([NMeGABA][NMeL]I[NMeF][NMeL][Tyr(3-F)][NMeL]T[NMeA][NMeL]D-Piperidide; lactam N-11)", "values": [
      {"measurement": "Papp", "setting": "Caco-2, Caco-2 (cm/sec)", "value": 0.16, "unit": "×10⁻⁶ cm/s"}
    ]},
    {"smiles": "CCCN1CC(=O)N(C)[C@@H](CC(C)C)C(=O)N[C@H](C(=O)N2CCCCC2)CC(=O)N(C)[C@@H](CC(C)C)C(=O)N[C@@H](Cc2ccccc2)C(=O)N(C)[C@@H](CC(C)C)C(=O)N(C)[C@@H](CC(C)C)C(=O)N[C@@H](COCCO)CC(=O)N(C)[C@@H](Cc2ccccc2)C(=O)N(C)[C@@H](CC(C)C)C(=O)N[C@@H]([C@@H](C)O)C1=O", "note": "[AP24] ([NMeL]F[NMeL][NMeL][X7][NMeF][NMeL]T[NPrGly][NMeL]D-Piperidide; lactam N-11)", "values": [
      {"measurement": "Papp", "setting": "Caco-2, Caco-2 (cm/sec)", "value": 0.42, "unit": "×10⁻⁶ cm/s"}
    ]},
    {"smiles": "CC(C)C[C@@H]1NC(=O)C[C@@H](C(=O)N2CCCCC2)NC(=O)[C@H](CC(C)C)N(C)C(=O)[C@H](Cc2ccccc2)NC(=O)[C@H](Cc2ccccc2)N(C)C(=O)[C@H]([C@@H](C)O)NC(=O)[C@H](CC(C)C)N(C)C(=O)[C@@H]2C[C@@H](OCCO)CN2C(=O)[C@H](CC(C)C)N(C)C(=O)[C@H](COC(C)(C)C)NC(=O)[C@H](CC(C)C)N(C)C1=O", "note": "[AP235] (L[NMeL]S(tBu)[NMeL][Hyp](Ethyl(2-OH))[NMeL]T[NMeF]F[NMeL]D-Piperidide; lactam N-11)", "values": [
      {"measurement": "Papp", "setting": "Caco-2, Caco-2 (cm/sec)", "value": 1.5, "unit": "×10⁻⁶ cm/s"}
    ]},
    {"smiles": "CC(C)C[C@H]1C(=O)N[C@@H](C(C)C)C(=O)N(C)[C@@H](Cc2ccccc2)C(=O)N(C)[C@@H](Cc2ccccc2)C(=O)N[C@@H](COC(C)(C)C)C(=O)N(C)[C@@H](CC(C)C)C(=O)N[C@@H](COCC(O)C(F)(F)F)C(=O)N(C)[C@@H](CC(C)C)C(=O)N(C)[C@@H](CC(C)C)C(=O)N[C@H](C(=O)N2CCCCC2)CC(=O)N(C)CCCC(=O)N1C", "note": "(stereo partly drawn) [Compound C12] ([NMeGABA][NMeL]V[NMeF][NMeF]S(tBu)[NMeL]S(CH2CH(OH)CF3)[NMeL][NMeL]D-Piperidide; lactam N-11)", "values": [
      {"measurement": "Papp", "setting": "Caco-2, Caco-2 (membrane permeability)", "value": 0.23, "unit": "×10⁻⁶ cm/s"}
    ]},
    {"smiles": "CC(C)C[C@@H]1NC(=O)[C@H](Cc2ccccc2)N(C)C(=O)[C@@H](C(C)C)NC(=O)C[C@@H](C(=O)N2CCCCC2)NC(=O)[C@H](CC(C)C)N(C)C(=O)[C@H](Cc2cccc(Cl)c2)N(C)C(=O)[C@H](COCCC(C)(C)O)NC(=O)[C@H](CC(C)C)N(C)C(=O)CN(C)C(=O)[C@H]([C@@H](C)O)NC(=O)[C@H](C(C)C)N(C)C1=O", "note": "[AP52] ([dV][NMeF]L[NMeV]T[Sar][NMeL]S(Butyl(3-Me,3-OH))[NMePhe(3-Cl)][NMeL]D-Piperidide; lactam N-11)", "values": [
      {"measurement": "Papp", "setting": "Caco-2, Caco-2 (cm/sec)", "value": 1.7, "unit": "×10⁻⁶ cm/s"}
    ]},
    {"smiles": "CCCCN1CC(=O)N(C)[C@@H](C(C)C)C(=O)N[C@H](C(=O)N2CCCCC2)CC(=O)N(C)[C@@H](CC)C(=O)N[C@@H](CC(C)C)C(=O)N(C)[C@@H](CC(C)C)C(=O)N(C)[C@@H](Cc2ccccc2)C(=O)NC(CCC(=O)NS(C)(=O)=O)C(=O)N(C)[C@@H](Cc2ccccc2)C(=O)N(C)[C@@H](CC(C)C)C(=O)N[C@@H](CC(C)C)C1=O", "note": "(stereo partly drawn) [pd69] ([NMeAbu]L[NMeL][NMeF][ξGln(SO2Me)][NMeF][NMeL]L[NBuGly][NMeV]D-Piperidide; lactam N-11)", "values": [
      {"measurement": "Papp", "setting": "Caco-2, Caco-2", "value": "< 0.14", "unit": "×10⁻⁶ cm/s"}
    ]},
    {"smiles": "CCCN1CC(=O)N(C)[C@@H](Cc2cccc(Cl)c2)C(=O)N(C)[C@@H](CC(C)C)C(=O)N[C@@H](COC[C@H](C)O)C(=O)N(C)[C@@H](CC(C)C)C(=O)N[C@H](C(=O)N2CCCCC2)CC(=O)N(C)CC(=O)N(C)[C@@H](Cc2ccccc2)C(=O)NC([C@@H](C)CC)C(=O)N(C)[C@@H](CC(C)C)C(=O)N[C@@H]([C@@H](C)O)C1=O", "note": "(stereo partly drawn) [AP68] ([Sar][NMeF][ξIle][NMeL]T[NPrGly][NMePhe(3-Cl)][NMeL]S(X3)[NMeL]D-Piperidide; lactam N-11)", "values": [
      {"measurement": "Papp", "setting": "Caco-2, Caco-2 (cm/sec)", "value": 0.24, "unit": "×10⁻⁶ cm/s"}
    ]},
    {"smiles": "CC[C@H]1C(=O)N[C@@H](CC(C)C)C(=O)N(C)[C@@H](CC(C)C)C(=O)N(C)[C@@H](Cc2ccccc2)C(=O)N[C@@H](Cc2ccc(O)cc2)C(=O)N(C)[C@@H](CC(C)C)C(=O)N(C)[C@@H](CC(C)C)C(=O)N[C@@H]([C@@H](C)O)C(=O)N(C)CC(=O)N(C)[C@@H](CC(C)C)C(=O)N[C@H](C(=O)N2CCCCC2)CC(=O)N1C", "note": "[Compound F05] ([NMeAbu]L[NMeL][NMeF]Y[NMeL][NMeL]T[Sar][NMeL]D-Piperidide; lactam N-11)", "values": [
      {"measurement": "Papp", "setting": "Caco-2, Caco-2 (cm/sec)", "value": 0.38, "unit": "×10⁻⁶ cm/s"}
    ]},
    {"smiles": "CCCCN1CC(=O)N(C)[C@@H](CC(C)C)C(=O)N(C)[C@@H](CC(C)C)C(=O)N[C@@H](COC(C)(C)C)C(=O)N(C)[C@@H](CC(C)C)C(=O)N[C@H](C(=O)N2CCCCC2)CC(=O)N(C)CC(=O)N(C)[C@@H](Cc2cccc(Cl)c2)C(=O)N[C@@H](Cc2ccc(C(=O)NC)c(OC)c2)C(=O)N(C)[C@@H](CC(C)C)C(=O)N[C@@H]([C@@H](C)O)C1=O", "note": "[AP33] ([Sar][NMePhe(3-Cl)][Phe(3-OMe,4-CONHMe)][NMeL]T[NBuGly][NMeL][NMeL]S(tBu)[NMeL]D-Piperidide; lactam N-11)", "values": [
      {"measurement": "Papp", "setting": "Caco-2, Caco-2 (cm/sec)", "value": 0.61, "unit": "×10⁻⁶ cm/s"}
    ]}
  ]
}
